Consider six compounds from patent US20140357579A1, “SYNTHETIC PEPTIDE AMIDES AND DIMERS THEREOF” (priority 2006, published 2014).

The target in one series is CYP3A4 (Homo sapiens, UniProt P08684). The series can be described thus: Recombinant human cytochrome P450 CYP3A4 inhibition (Cerep). The settings on record: 10 uM test compound, percent remaining CYP activity.
A further series addresses CYP2C9 (Homo sapiens, UniProt P11712). Kind of series: Cytochrome P450 CYP2C9 inhibition, human liver microsomes (Cerep). The settings on record: 10 uM test compound, percent remaining CYP activity.
Series [1] has as its system mice. The series can be described thus: Inhibition of locomotion in mice (sedation). To be noted: delivered subcutaneously.
Series [2] deals with mice. The series can be described thus: Acetic acid-induced writhing assay in mice. It counts as in vivo. To be noted: IRC mice, delivered subcutaneously.
For a further series, the system named is CYP1A. Kind of series: Cytochrome P450 CYP1A inhibition, human liver microsomes (Cerep). To be noted: 10 uM test compound, percent remaining CYP activity.
For a further series, the target named is CYP2D6 (Homo sapiens, UniProt P10635). Kind of series: Cytochrome P450 CYP2D6 inhibition, human liver microsomes (Cerep). To be noted: 10 uM test compound, percent remaining CYP activity.
Sequence of CYP2D6 (P10635 whole entry): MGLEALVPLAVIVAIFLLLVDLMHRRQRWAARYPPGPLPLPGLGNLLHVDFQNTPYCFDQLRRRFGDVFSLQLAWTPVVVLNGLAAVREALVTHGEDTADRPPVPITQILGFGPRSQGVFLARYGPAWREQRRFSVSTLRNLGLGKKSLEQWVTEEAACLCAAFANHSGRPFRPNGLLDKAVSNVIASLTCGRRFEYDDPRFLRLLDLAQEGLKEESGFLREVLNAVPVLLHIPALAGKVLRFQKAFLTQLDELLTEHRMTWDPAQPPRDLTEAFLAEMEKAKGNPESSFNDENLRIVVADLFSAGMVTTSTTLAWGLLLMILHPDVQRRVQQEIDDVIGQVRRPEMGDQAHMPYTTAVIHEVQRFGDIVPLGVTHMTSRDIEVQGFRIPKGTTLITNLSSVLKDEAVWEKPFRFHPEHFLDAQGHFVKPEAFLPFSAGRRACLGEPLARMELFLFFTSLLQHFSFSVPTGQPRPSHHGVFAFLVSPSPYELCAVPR
Series [3] deals with T1, mouse kappa opioid receptor (mKOR) (Mus musculus, UniProt P33534).
T1 construct: a mouse thymoma cell line that expresses only the kappa-opioid receptor and no other opioid receptor subtype; host or cells: R1.G1 mouse thymoma cells
T1 sequence (P33534 whole entry): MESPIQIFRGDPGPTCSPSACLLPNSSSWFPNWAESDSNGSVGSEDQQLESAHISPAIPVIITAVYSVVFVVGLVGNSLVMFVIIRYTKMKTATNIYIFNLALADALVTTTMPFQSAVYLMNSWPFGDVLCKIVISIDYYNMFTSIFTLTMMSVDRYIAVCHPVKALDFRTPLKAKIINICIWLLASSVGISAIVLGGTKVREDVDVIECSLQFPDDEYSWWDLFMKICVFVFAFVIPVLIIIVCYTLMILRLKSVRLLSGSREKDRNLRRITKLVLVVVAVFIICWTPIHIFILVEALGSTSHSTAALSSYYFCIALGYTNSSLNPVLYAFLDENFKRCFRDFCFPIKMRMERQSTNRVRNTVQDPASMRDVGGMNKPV
The series can be described thus: Inhibition of forskolin-stimulated cAMP production in R1.G1 cells (TR-FRET cAMP immunoassay). It counts as cell-based. The settings on record: for EC50: inhibition of forskolin-stimulated cAMP.

Series [4] addresses T2, human kappa opioid receptor (hKOR) (Homo sapiens, UniProt P41145).
T2 construct: expressed in transfected cells; host or cells: HEK-293 cells (ATCC), transient transfection with pcDNA3-hOPRK1
Kind of series: NFAT-luciferase reporter assay in HEK-293 cells transfected with human kappa opioid receptor and chimeric G-protein. It counts as cell-based. The settings on record: for EC50: transfected HEK-293 cells, luciferase reporter.

In another series the target is CYP2C19 (Homo sapiens, UniProt P33261). Kind of series: Cytochrome P450 CYP2C19 inhibition, human liver microsomes (Cerep). To be noted: 10 uM test compound, percent remaining CYP activity.
Sequence of CYP2C19 (P33261 whole entry): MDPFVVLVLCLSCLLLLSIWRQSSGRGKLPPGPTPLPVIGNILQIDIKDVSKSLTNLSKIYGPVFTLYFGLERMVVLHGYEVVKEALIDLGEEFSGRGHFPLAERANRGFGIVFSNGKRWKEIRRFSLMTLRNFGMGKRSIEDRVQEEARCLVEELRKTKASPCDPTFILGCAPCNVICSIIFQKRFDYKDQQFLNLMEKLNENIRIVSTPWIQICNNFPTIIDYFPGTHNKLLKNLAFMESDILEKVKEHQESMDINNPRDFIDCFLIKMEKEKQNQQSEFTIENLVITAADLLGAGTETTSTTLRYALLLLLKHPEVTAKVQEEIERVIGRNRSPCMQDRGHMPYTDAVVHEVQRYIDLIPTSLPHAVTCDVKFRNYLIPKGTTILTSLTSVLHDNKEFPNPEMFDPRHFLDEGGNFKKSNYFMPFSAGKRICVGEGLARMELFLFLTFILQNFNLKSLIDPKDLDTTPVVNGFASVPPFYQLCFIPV
For a further series, the target named is human mu opioid receptor (Homo sapiens, UniProt P35372). Kind of series: Similar assay for potency on the human mu opioid receptor. It is filed as cell-based. As to the method: Synthetic peptide amides of the invention were tested in a similar assay for potency on the human mu opioid receptor.
Sequence of human mu opioid receptor (P35372 whole entry): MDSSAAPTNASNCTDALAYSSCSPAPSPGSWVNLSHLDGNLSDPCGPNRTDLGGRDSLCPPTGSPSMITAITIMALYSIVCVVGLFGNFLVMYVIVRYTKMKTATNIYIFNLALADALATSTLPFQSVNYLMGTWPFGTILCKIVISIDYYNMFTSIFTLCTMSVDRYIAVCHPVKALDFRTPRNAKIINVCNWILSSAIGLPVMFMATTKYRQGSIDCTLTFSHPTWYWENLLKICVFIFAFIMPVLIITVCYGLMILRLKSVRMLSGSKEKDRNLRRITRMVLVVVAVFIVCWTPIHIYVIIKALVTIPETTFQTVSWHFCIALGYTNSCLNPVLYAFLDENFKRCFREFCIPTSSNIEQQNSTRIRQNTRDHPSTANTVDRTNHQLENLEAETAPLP
The synthetic peptide amide (53) was tested in a similar assay for potency on the human mu opioid receptor.

The mark [5] stands for this setting: percent maximal activation compared to full induction by known kappa agonists.
The mark [6] stands for this setting: R1.G1 cells, read-out: mKOR EC50.
[7] abbreviates: R1.G1 cells, read-out: mKOR Efficacy(%).
[8] abbreviates: HEK293, percent maximal activation compared to full induction by known kappa agonists, read-out: hKOR Efficacy(%).

Molecules are shown by their SMILES. Read-outs that look alike come from different tables or passages of the source. Square brackets hold non-standard residues; d marks the D form. Side chains are listed from the residue outwards. Peptide text beside a SMILES is read from it. dOrn = NCCC[C@@H](N)C(=O)O

T2 sequence (P41145 whole entry): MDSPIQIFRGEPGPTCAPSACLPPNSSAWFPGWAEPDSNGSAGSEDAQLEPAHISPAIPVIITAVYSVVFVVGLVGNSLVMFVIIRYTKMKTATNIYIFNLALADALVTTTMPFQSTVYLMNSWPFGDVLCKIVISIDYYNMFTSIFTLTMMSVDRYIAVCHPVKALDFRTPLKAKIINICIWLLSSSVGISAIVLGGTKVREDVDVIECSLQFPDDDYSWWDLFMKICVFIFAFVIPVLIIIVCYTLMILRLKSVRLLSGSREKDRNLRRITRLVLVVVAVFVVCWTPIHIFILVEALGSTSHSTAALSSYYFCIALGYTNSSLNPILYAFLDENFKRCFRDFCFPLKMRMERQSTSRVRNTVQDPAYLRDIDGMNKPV
Sequence of CYP2C9 (P11712 whole entry): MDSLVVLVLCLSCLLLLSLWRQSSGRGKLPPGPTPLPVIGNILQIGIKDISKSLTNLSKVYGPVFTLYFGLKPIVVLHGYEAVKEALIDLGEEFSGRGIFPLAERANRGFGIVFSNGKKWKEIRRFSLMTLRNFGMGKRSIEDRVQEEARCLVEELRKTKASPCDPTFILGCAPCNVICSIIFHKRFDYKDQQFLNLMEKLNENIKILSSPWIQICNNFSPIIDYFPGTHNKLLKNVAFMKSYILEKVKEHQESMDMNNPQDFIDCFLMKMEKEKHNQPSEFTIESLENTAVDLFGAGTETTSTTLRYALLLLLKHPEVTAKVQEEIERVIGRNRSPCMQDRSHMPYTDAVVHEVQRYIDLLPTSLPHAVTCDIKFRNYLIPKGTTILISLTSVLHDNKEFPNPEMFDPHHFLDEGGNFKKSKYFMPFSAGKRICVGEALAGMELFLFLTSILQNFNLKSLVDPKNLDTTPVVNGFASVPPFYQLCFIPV
Sequence of CYP3A4 (P08684 whole entry): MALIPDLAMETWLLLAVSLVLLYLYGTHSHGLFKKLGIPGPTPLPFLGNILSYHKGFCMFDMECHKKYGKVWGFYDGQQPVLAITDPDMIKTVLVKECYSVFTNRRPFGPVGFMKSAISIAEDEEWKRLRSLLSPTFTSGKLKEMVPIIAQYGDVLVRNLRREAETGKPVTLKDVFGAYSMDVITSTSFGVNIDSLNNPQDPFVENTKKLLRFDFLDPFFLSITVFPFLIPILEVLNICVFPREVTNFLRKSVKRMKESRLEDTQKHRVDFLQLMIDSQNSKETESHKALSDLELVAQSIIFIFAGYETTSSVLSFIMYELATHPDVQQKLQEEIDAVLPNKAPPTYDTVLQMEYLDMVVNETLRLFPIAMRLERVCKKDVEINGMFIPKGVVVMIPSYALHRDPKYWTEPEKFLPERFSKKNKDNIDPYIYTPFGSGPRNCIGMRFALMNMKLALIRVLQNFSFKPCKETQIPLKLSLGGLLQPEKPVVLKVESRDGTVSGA

In the case of `CC(C)C[C@@H](NC(=O)[C@@H](Cc1ccccc1)NC(=O)[C@H](N)Cc1ccccc1)C(=O)N[C@H](CCCN)C(=O)N1CCCN(C2=NCCN2)CC1` [Compound 17, D-Phe-D-Phe-D-Leu-D-Orn-[4-(4,5-dihydro-1H-imidazol-2-yl)homopiperazine amide]], the “Percent Activity of CYP3A4” value amounted to 94.7% at CYP3A4 (Expt 1) and 95.9% on CYP3A4 (Expt 2). In addition, the “Percent Activity of CYP2C9” value at CYP2C9 (Expt 1) is recorded as 99.2%; on CYP2C9 (Expt 2) it was 98.2%. Also, in the series on mice [1], the “ED50 in the inhibition of locomotion assay” value was found to be 3.172 mg/kg. Moreover, the “ED50 in the acetic acid-induced writhing assay” value in the series on mice [2] was determined as 0.074 mg/kg. Moreover, the “Percent Activity of CYP1A” value in the series on CYP1A (Expt 1) is 97.1%; in the series on CYP1A (Expt 2), 95.8%. Moreover, the “Percent Activity of CYP2D6” value at CYP2D6 (Expt 1) came to 98.4%; on CYP2D6 (Expt 2), 98.2%. Also, the “mKOR Efficacy(%)” value in series [3] (R1.G1 cells) stood at 99%. Further, the “hKOR Efficacy(%)” value in series [4] (setting [5]) was determined as 90%. Further, in series [4] (read-out: hKOR EC50), the EC50 amounted to 0.12 nM. Besides, the “Percent Activity of CYP2C19” value at CYP2C19 (Expt 1) was 94.1%; at CYP2C19 (Expt 2), 97.8%.

For the compound `CC(C)C[C@@H](NC(=O)[C@@H](Cc1ccccc1)NC(=O)[C@H](N)Cc1ccccc1)C(=O)N[C@H](CCCN)C(=O)NCCCC[C@H](NC(=O)[C@H](N)CCCN)C(=O)O` [Compound 42], the EC50 amounted to 0.24 nM in series [3] (setting [6]) and 0.27 nM in [4] (read-out: hKOR EC50). Moreover, the Emax in series [3] (setting [7]) amounted to 97%; in [4] (setting [8]), 95%.

Consider `CC(C)C[C@@H](NC(=O)[C@@H](Cc1ccccc1)NC(=O)[C@H](N)Cc1ccccc1)C(=O)N[C@H](CCCN)C(=O)NCCCC[C@H](NC(=O)[C@@H](CCCN)NC(=O)[C@@H](CC(C)C)NC(=O)[C@@H](Cc1ccccc1)NC(=O)[C@H](N)Cc1ccccc1)C(N)=O` [Compound 43] (H-[dF][dF][dL][dOrn]K([dOrn-dL-dF-dF])-NH2), for which the EC50 in [3] (mKOR EC50 (nM), R1.G1 cells) is 0.08 nM; in series [4] (hKOR EC50 (nM)) it was 0.13 nM. For the same compound, the Emax in series [3] (read-out: mKOR Efficacy(%), R1.G1 cells) was found to be 101%; in series [4] (HEK293, read-out: hKOR Efficacy(%), percent maximal activation compared to full induction by known kappa agonists) it was 94%.

With `CC(C)C[C@@H](NC(=O)[C@@H](Cc1ccccc1)NC(=O)[C@H](N)Cc1ccccc1)C(=O)N[C@H](CCCN)C(=O)NCCCC[C@H](NC(=O)[C@H](N)CCCN)C(=O)N1CCNCC1` [Compound 44], the EC50 in series [3] (setting [6]) is 1.3 nM; in series [4] (read-out: hKOR EC50), 0.25 nM. Further, the Emax is 91% in [3] (setting [7]) and 93% in series [4] (setting [8]).

Turning to `CC(C)C[C@@H](NC(=O)[C@@H](Cc1ccccc1)NC(=O)[C@H](N)Cc1ccccc1)C(=O)N[C@H](CCCN)C(=O)NCCCC[C@@H](NC(=O)[C@H](N)CCCN)C(=O)O` [Compound 45], the EC50 in series [3] (setting [6]) amounted to 0.05 nM; in series [4] (read-out: hKOR EC50) it was 0.28 nM. For the same compound, the Emax in [3] (setting [7]) and in series [4] (setting [8]) was 96% each time.

In turn, `CC(C)C[C@@H](NC(=O)[C@@H](Cc1ccccc1)NC(=O)[C@H](N)Cc1ccccc1)C(=O)N[C@H](CCCN)C(=O)N1CCOC(C(=O)O)C1` (stereo partly drawn) [Compound 53, D-Phe-D-Phe-D-Leu-D-Orn-[R/S-2-carboxymorpholine]-OH] gave an EC50 on human mu opioid receptor of at least 1000 nM. Also, the “mKOR Efficacy(%)” value in [3] (R1.G1 cells) is listed as 100%. Also, the “hKOR Efficacy(%)” value in series [4] (setting [5]) is recorded as 100%.
